In US20240216272A1, “PHARMACEUTICAL PREPARATION” (KOWA COMPANY, LTD., priority 2014, published 2024):

How the values were obtained:
Type in all cases: physicochemical
[1] = Test Example 6: photostability in container with shrinkable film containing an ultraviolet scattering agent; conditions: for Analogs (%): aqueous composition 0.4 g/100 mL as free form, pH 6.0, polypropylene container wound with shrinkable film containing titanium oxide (transmittance 300 to 335 nm: 0.3%)
Description: Stabilization of the aqueous composition containing ripasudil was attempted by storing the aqueous composition in a container containing an ultraviolet scattering agent, as in Test Example 5. Specifically, the test was performed as in Test Example 5, except that the below-described container including a shrinkable film containing an ultraviolet scattering agent was used instead of the container containing an ultraviolet absorber, and a white fluorescent lamp (one used in a hospital dispensary and the like) was used as the light source instead of the D65 fluorescent lamp. A white shrinkable film (heat-shrinkable film) (Iwata Label Co., Ltd.) into which 40 to 45 mass % of titanium oxide was mixed as an ultraviolet scattering agent was wound around a side surface of a general container for eye drops made of polypropylene not containing an ultraviolet absorber, an ultraviolet scattering agent, or the like, in accordance with a conventional method, and the resulting container was used. […] Since the shrinkable film was not transparent, the contents were not visible through the side surface of the container in this state (for example, the average value of transmittance of light in the visible light region (450 to 750 nm) was 1.1%). Thus, slits with about a width of 5 mm were provided in the lower half of the side surface of the container to make the amount of the contents visible (this portion was not able to block the rays). The contents were visible through the bottom surface of the container, since the shrinkable film was not wound around the bottom surface.

[2] = Test Example 9: Preservation Test No. 3, precipitation of crystals at 0° C.; set-up: key to Presence or Absence of Precipitation of Crystals: the absence of precipitation of crystals was rated as “a”; the presence of precipitation of crystals was rated as “b”; conditions: for Presence or Absence of Precipitation of Crystals: aqueous composition of Table 11 (phosphate, pH 6.7), 0° C. for 2 days; for precipitation of crystals: preserved at low temperature, in words
Description: An aqueous composition of the formulation shown in Table 11 was prepared in accordance with a conventional method, and then placed in a container made of polyethylene terephthalate (PET) or polyvinyl chloride (PVC) to produce a pharmaceutical preparation. Each of the resulting pharmaceutical preparations was preserved at 0° C. for 2 days, and then visually evaluated for the presence or absence of precipitation of crystals. Note that the absence of precipitation of crystals was rated as “a”, and the presence of precipitation of crystals was rated as “b”. [table]

[3] = Test Example 1: photostability of ripasudil (powder), analogs by HPLC; conditions: for Analogs (%): powder in glass petri dish, D65 fluorescent lamp 4000 lux, 25° C.
Description: (§1) In the following test examples, ripasudil monohydrochloride dihydrate can be produced in accordance with the method described in WO2006/057397, for example. Moreover, in the following test examples, measurement of ripasudil and its analogs using HPLC was performed using an ODS column as the column, 0.01 mol/L phosphate buffer and acetonitrile as the mobile phase, and an ultraviolet absorptiometer (wavelength: 280 nm) as the detector.
The stability of ripasudil with respect to light was evaluated by examining the presence or absence of degradation products formed by exposure to light.
Specifically, powdery ripasudil monohydrochloride dihydrate was spread in a glass petri dish to a thickness of 3 mm or less, and then irradiated with 4000 lux of light to give a cumulative radiation dose of 400,000, 800,000, or 1,200, 000 lux·hr, at 25° C., with a D65 fluorescent lamp as the light source, using a photostability tester (LT-120A: Nagano Science Corporation).
To examine the presence or absence of photodegradation products of ripasudil, the presence or absence of an increase in the amount of ripasudil analogs was evaluated for the sample before and after exposure to light. The amount of analogs was evaluated as the ratio (%) of the peak area of analogs relative to the peak area of ripasudil, using HPLC.

[4] = Test Example 2: photostability of ripasudil in an aqueous composition; conditions: D65 lamp; for Analogs (%): aqueous composition 0.4 g/100 mL as free form, pH 6.0, transparent polypropylene container, 25° C.
Description: as §1
The stability of ripasudil incorporated in an aqueous composition with respect to light was evaluated by examining the presence or absence of degradation products formed by exposure to light, as in Test Example 1.
Specifically, an aqueous composition containing, per 100 mL, 0.4896 g of ripasudil monohydrochloride dihydrate (0.4 g, as the free form of ripasudil), 0.4 g of anhydrous sodium dihydrogen phosphate, 2.136 g of glycerin, 0.002 g of benzalkonium chloride, an appropriate amount of sodium hydroxide (pH 6.0), and sterile purified water (balance) was prepared, and this aqueous composition was stored in a transparent container made of polypropylene. The aqueous composition was then irradiated with 4000 lux of light to give a cumulative radiation dose of 300,000, 600,000, or 1,200,000 lux·hr, at 25° C., with a D65 fluorescent lamp as the light source, using a photostability tester (LT-120A: Nagano Science Corporation).
To examine the presence or absence of photodegradation products of ripasudil, the presence or absence of an increase in the amount of ripasudil analogs was evaluated. The amount of analogs was evaluated as the area percentage (%) relative to the total peak area derived from ripasudil and its analogs, using HPLC.

[5] = Test Example 10: Preservation Test No. 4, precipitation of crystals at 0° C.; set-up: key to Presence or Absence of Precipitation of Crystals: the absence of precipitation of crystals was rated as “a”; the presence of precipitation of crystals was rated as “b”
Description: An aqueous composition of the formulation shown in Table 13 was prepared in accordance with a conventional method, and then placed in a container made of polyethylene terephthalate (PET) to produce a pharmaceutical preparation. The resulting pharmaceutical preparation was preserved at 0° C. for 21 days, and then visually evaluated for the presence or absence of precipitation of crystals. Note that the absence of precipitation of crystals was rated as “a”, and the presence of precipitation of crystals was rated as “b”. [table]

## C[C@H]1CNCCCN1S(=O)(=O)c1cccc2cncc(F)c12 [ripasudil, 4-fluoro-5-[[(2S)-2-methyl-1,4-diazepan-1-yl]sulfonyl]isoquinoline]
[1]; before exposure to light
  Analogs (%): 0.13%
[1]; white fluorescent lamp, 1,200,000 lux·hr
  Analogs (%): 0.28%
[1]; container with average transmittance at 300 to 335 nm of 0.3%, in words
  photostability of ripasudil in the aqueous composition: improved
[2]; container PET
  Presence or Absence of Precipitation of Crystals: a
[2]; container PVC
  Presence or Absence of Precipitation of Crystals: b
[2]; container made of PET
  precipitation of crystals: no precipitation of crystals was observed
[2]; container made of PVC
  precipitation of crystals: precipitation of crystals was observed
[3]; before exposure to light
  Analogs (%): 0.11%
[3]; cumulative radiation dose 400,000 lux·hr
  Analogs (%): 0.14%
[3]; cumulative radiation dose 800,000 lux·hr
  Analogs (%): 0.16%
[3]; cumulative radiation dose 1,200,000 lux·hr
  Analogs (%): 0.16%
[3]; powder, up to 1,200,000 lux·hr, in words
  formation of photodegradation products: no formation of photodegradation products was observed
[4]; 300,000 lux·hr
  Analogs (%): 1.29%
[4]; 600,000 lux·hr
  Analogs (%): 1.95%
[4]; 1,200,000 lux·hr
  Analogs (%): 3.67%
[4]; before exposure to light
  Analogs (%): 0.17%
[4]; aqueous composition, transparent polypropylene container, in words
  formation of degradation products due to exposure to light: degradation products due to exposure to light are formed
[5]; aqueous composition of Table 13 (boric acid, pH 6.7), 0° C. for 21 days, container PET
  Presence or Absence of Precipitation of Crystals: a
[5]; changed formulation, preserved at low temperature, container made of PET, in words
  precipitation of crystals: no precipitation of crystals was observed
